In PubChem BioAssay (NCI):
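Tested at 5 concentrations; 48 h exposure; 96-well plates; endpoints linearly interpolated, else capped at highest concentration. At the GI50, growth is halved. TGI: total growth inhibition.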

Key:
Test in all cases: growth of human tumour cells (NCI), 48 h
[1] = system: HCT-15 colon
[2] = system: OVCAR-3 ovarian
[3] = system: RXF 393 renal
[4] = system: TK-10 renal
[5] = system: UACC-62 melanoma
[6] = system: HCT-116 colon
[7] = system: MALME-3M melanoma
[8] = system: MOLT-4 leukemia

SMILES	GI50 [1] [µM]	TGI [1] [µM]	GI50 [2] [µM]	TGI [2] [µM]	GI50 [3] [µM]	TGI [3] [µM]	GI50 [4] [µM]	TGI [4] [µM]	GI50 [5] [µM]	TGI [5] [µM]	GI50 [6] [µM]	TGI [6] [µM]	GI50 [7] [µM]	TGI [7] [µM]	GI50 [8] [µM]	TGI [8] [µM]
COc1cc(/C=C2\CN(S(=O)(=O)c3ccccc3)C/C(=C\c3cc(CN4CCCC4)c(O)c(OC)c3)C2=O)cc(CN2CCCC2)c1O	2.3	7.6	1.02	3.05	1.27	2.8	3.18	7.73	1.61	3.24	–	–	–	–	–	–
O=C(/C=C/c1ccncc1)c1cc(Cl)ccc1O	22.4	63.8	17.3	32.9	18.3	33.1	–	–	15.9	37.3	14.6	27.9	19.7	45.5	–	–
O=C1OC(O)[C@@H]2[C@H]1[C@H]1CC[C@@H]2O1 (some centres not stated)	> 100	> 100	32.8	69.2	57	> 100	27.3	66.2	> 100	> 100	42.9	> 100	28.1	77.3	> 100	> 100
COC(=O)C1=C(C)NC(C)=C(C(=O)OCCCN2CCC(c3ccccc3)(c3ccccc3)CC2)C1c1cccc([N+](=O)[O-])c1 (configuration not stated)	–	3.19	–	2.8	–	3.43	–	7.34	–	3.24	–	2.86	–	3.66	–	10
CCCCCCCC(=O)SCC/C=C/[C@@H]1CC(=O)NCc2cc(ccn2)C2=N[C@@](C)(CS2)C(=O)N[C@@H](C(C)C)C(=O)O1	0.141	> 33.3	0.0362	0.362	0.0128	0.0822	< 0.0141	0.173	0.0062	0.0507	0.00468	0.0466	0.00864	> 33.3	0.0133	> 28.7
CC(C)C(C)/C=C\C(C)C1CCC2C3=CC=C4CC(O)CCC4(C)C3CCC21C (configuration not stated)	–	> 71.3	–	> 80.5	–	> 58.7	–	> 100	–	> 66.6	–	> 57.2	–	> 50.6	–	58.3
COc1ccc(/C=C(/C#N)n2nnc3cccc(F)c32)cc1	0.401	> 100	0.316	0.899	1.3	6.37	3.18	47.2	0.516	29.9	0.533	3.02	0.69	> 100	0.68	> 100
Cc1cccc(NC(=O)Cn2cnc3sc(C(=O)OC(C)C)c(C)c3c2=O)c1	32.6	> 50	33.4	> 50	7.1	22.7	16.7	> 50	8.78	24.3	15.6	> 50	–	–	> 50	> 50
Cc1ccc(S(=O)(=O)Nc2ccccc2C(=O)c2ccc(C)c(C)c2)cc1	–	> 100	–	> 100	–	> 100	–	> 100	–	> 100	–	> 100	–	> 100	–	–
COc1cc(/C=C/c2cc(O)c(C(C)=O)c(O)c2)cc2c1O[C@]1(C)CC[C@@H](O)C(C)(C)[C@H]1C2	4.68	35.7	4.67	53.9	1.7	6.06	22.2	> 100	2.89	11.5	4.56	22	7.35	44.2	3.22	34.7
Cc1cc(/C=C/c2ccc3cc(N(C)C)ccc3[n+]2C)c(C)n1-c1ccccc1	1.31	6.3	0.197	1.42	0.199	0.987	0.301	2.34	0.277	1.27	0.0908	2.69	0.42	1.46	0.193	2.52
COC1=CC(=O)C(C2CC(=O)c3c(O)cc(O)cc3O2)=CC1=O (configuration not stated)	–	55.3	–	39.9	–	34.8	–	31.8	–	31.3	–	32.9	–	34.8	–	5.12
OCCCCCNCc1cc2cc3c(cc2c2cc(OCc4ccccc4)ccc12)OCO3	1.59	3.05	1.68	3.14	1.04	2.2	1.55	2.95	1.71	3.08	1.46	2.81	1.66	3.1	1.41	4.55
COc1cc2c3c(n(C)c(=O)c2cc1OC)-c1cc2c(cc1/C3=C\CCN)OCO2	0.679	12.8	0.564	5.09	0.823	6.86	1.17	6.72	0.185	4.41	< 0.024	0.348	0.239	2.07	< 0.01	–
COc1cc2c3c(n(C)c(=O)c2cc1OC)-c1cc2c(cc1/C3=C\CCCN)OCO2	3.18	15.5	13.8	29.8	5.84	32	21.9	> 100	2.13	13.7	4.64	25.2	10.1	38.6	0.325	3.64
OCC#Cc1ccccc1C#Cc1ccccc1	11.5	24.8	6.9	20.3	–	–	13.6	26.6	14.8	27.9	15.3	28.6	–	–	3.95	> 100
Cc1c2c(nn1-c1ccc(S(=O)(=O)/N=C3\SCCC(=O)N3c3ccccc3)cc1)-c1ccccc1CC2	> 100	> 100	> 100	> 100	70.9	> 100	> 100	> 100	> 100	> 100	> 100	> 100	–	–	> 100	> 100
CCN1CCN(c2nc(C)cc(N(CCNc3ccnc4cc(Cl)ccc34)Cc3ccc4c(c3)OCO4)n2)CC1	1.46	3.26	2.28	7.02	1.44	3.08	1.66	3.16	1.85	3.38	1.38	3.51	1.84	3.44	2.1	6.2

SMILES	GI50 [1] [µM]	TGI [1] [µM]	GI50 [2] [µM]	TGI [2] [µM]	GI50 [3] [µM]	TGI [3] [µM]	GI50 [4] [µM]	TGI [4] [µM]	GI50 [5] [µM]	TGI [5] [µM]	GI50 [6] [µM]	TGI [6] [µM]	GI50 [7] [µM]	TGI [7] [µM]	GI50 [8] [µM]	TGI [8] [µM]
COc1cc(OC)cc(-c2cc(=O)c3c(OC)c(OC)c(OC)c(OC)c3o2)c1	–	> 100	–	> 100	–	84.8	–	> 100	–	> 100	–	> 100	–	> 100	–	> 100
COc1ccc([C@H]2[C@@H](F)C(=O)N2c2cc(OC)c(OC)c(OC)c2)cc1F	0.0664	> 100	0.0465	0.492	0.0398	66	38.6	> 100	–	–	0.0325	> 100	–	–	0.146	93.4
NS(=O)(=O)c1cc(Br)c(N=Nc2ccc(O)c3ncccc23)c(Br)c1	–	> 100	–	> 100	–	> 100	–	> 100	–	68.8	–	> 100	–	79.6	–	> 100
Cc1cc(O)c(/C=N/C(=S)NCc2ccccc2)c(=O)o1	–	> 100	–	> 100	–	> 100	–	> 100	–	> 100	–	> 100	–	> 100	–	> 100
Nc1ncnc2n[nH]c(Nc3ccc(F)cc3)c12	8.6	> 100	30.8	> 100	13.6	> 100	25.4	> 100	20.8	> 100	12.3	31.9	30.6	> 100	31.7	> 100
O=C(CCc1nnc2sc(-c3ccc(Cl)cc3Cl)nn12)c1nc2ncccc2[nH]1	1.64	4.61	1.52	3.1	1.8	3.34	2.53	5.16	1.65	3.31	1.3	2.65	1.85	4.1	1.15	60.8
NC1(C(=O)OCc2ccccc2)CCCC1	–	60.8	–	28.7	–	33.7	–	> 100	–	37	–	41.8	–	31.8	–	83
C=C1C(=O)O[C@H]2[C@H]1CC/C(COC(=O)c1c[nH]c3ccccc13)=C\CC[C@@]1(C)O[C@@H]21	0.258	0.773	0.207	0.483	0.19	0.391	0.28	0.736	0.185	0.388	0.193	0.459	0.324	1.27	0.282	1.45
O=C(/C=C/c1ccc(Cl)cc1)c1ccc(Nc2ccnc3cc(Cl)ccc23)cc1	23.7	> 100	32	> 100	10.7	> 83.8	> 84.7	> 100	> 100	> 100	–	–	> 100	> 100	5.46	> 100
COc1c(Cl)c(=O)oc2ccc(Cl)cc12	–	> 100	–	> 100	–	> 100	–	> 100	–	> 100	–	> 100	–	> 100	–	> 100
Cn1cnc([N+](=O)[O-])c1S(=O)(=O)Oc1cccc2ccccc12	1.97	4.72	1.89	3.96	2.3	4.3	1.59	2.98	7.12	20.8	2.1	5.11	1.83	4.98	3.37	22.7
CCOC(=O)c1cc2nc3ccccc3c(=O)n2c2ccccc12	–	> 10	–	> 10	–	> 10	–	> 10	–	> 10	–	> 10	–	> 10	–	–
CC(=O)[C@@]12O[C@@H]1CC1C3CCC4=CC(O)CCC4(C)C3CCC12C (some centres not stated)	33.1	> 100	78.5	> 100	28.6	65.6	15.9	56.9	> 100	> 100	31.7	> 100	–	–	> 100	> 100
O=S(=O)(CCn1c(Sc2ccccc2)c(Sc2ccccc2)c2ccccc21)c1ccccc1	–	> 100	–	> 100	–	–	–	> 100	–	> 100	–	> 100	–	> 100	–	> 100
COc1cc(C2c3cc4c(cc3OC(C)(O)C2C)OCO4)cc(OC)c1OC (configuration not stated)	–	> 100	–	> 100	–	–	–	–	–	–	–	75.2	–	> 100	–	25.9
COc1ncnc(NS(=O)(=O)c2ccc(N=C3C(=O)N(CN4CCN(c5c(F)cc6c(=O)c(C(=O)O)cn(C7CC7)c6c5OC)CC4C)c4ccc(Cl)cc43)cc2)c1OC (configuration not stated)	7.48	23	13.1	> 50	10.8	39.6	–	–	16.1	> 50	11.5	> 50	–	–	> 50	> 50
O=C(Nc1ccc(Cl)cc1)c1cccc(NC2=C(Cl)C(=O)N(Cc3ccccc3)C2=O)c1	12.2	26.9	8.04	47	–	–	14.3	30.7	11	22.9	6.29	19.7	–	–	12.1	24.5
COc1cccc(-c2nc(-c3ccc(NC(=O)C(C)C)cc3)[nH]c2-c2ccnc(Br)c2)c1	–	–	3.38	> 100	0.354	1.46	4.35	> 100	2.57	7.99	2.49	7.8	2.65	9.26	2.56	> 100
